Read-outs that look alike come from different tables or passages of the source. Where a SMILES comes first, the peptide text is derived from it.
Target: T1, angiotensin converting enzyme (ACE) (Oryctolagus cuniculus, UniProt P12822)
T1 construct: resulting supernatant was purified with hydroxyapatite to obtain 1 unit/mg protein of angiotensin converting enzyme liquid; tissue Sigma Co., Ltd. (alternative source); host or cells: rabbit lung (acetone powder extract purified with hydroxyapatite)
T1 sequence (P12822 34-1310): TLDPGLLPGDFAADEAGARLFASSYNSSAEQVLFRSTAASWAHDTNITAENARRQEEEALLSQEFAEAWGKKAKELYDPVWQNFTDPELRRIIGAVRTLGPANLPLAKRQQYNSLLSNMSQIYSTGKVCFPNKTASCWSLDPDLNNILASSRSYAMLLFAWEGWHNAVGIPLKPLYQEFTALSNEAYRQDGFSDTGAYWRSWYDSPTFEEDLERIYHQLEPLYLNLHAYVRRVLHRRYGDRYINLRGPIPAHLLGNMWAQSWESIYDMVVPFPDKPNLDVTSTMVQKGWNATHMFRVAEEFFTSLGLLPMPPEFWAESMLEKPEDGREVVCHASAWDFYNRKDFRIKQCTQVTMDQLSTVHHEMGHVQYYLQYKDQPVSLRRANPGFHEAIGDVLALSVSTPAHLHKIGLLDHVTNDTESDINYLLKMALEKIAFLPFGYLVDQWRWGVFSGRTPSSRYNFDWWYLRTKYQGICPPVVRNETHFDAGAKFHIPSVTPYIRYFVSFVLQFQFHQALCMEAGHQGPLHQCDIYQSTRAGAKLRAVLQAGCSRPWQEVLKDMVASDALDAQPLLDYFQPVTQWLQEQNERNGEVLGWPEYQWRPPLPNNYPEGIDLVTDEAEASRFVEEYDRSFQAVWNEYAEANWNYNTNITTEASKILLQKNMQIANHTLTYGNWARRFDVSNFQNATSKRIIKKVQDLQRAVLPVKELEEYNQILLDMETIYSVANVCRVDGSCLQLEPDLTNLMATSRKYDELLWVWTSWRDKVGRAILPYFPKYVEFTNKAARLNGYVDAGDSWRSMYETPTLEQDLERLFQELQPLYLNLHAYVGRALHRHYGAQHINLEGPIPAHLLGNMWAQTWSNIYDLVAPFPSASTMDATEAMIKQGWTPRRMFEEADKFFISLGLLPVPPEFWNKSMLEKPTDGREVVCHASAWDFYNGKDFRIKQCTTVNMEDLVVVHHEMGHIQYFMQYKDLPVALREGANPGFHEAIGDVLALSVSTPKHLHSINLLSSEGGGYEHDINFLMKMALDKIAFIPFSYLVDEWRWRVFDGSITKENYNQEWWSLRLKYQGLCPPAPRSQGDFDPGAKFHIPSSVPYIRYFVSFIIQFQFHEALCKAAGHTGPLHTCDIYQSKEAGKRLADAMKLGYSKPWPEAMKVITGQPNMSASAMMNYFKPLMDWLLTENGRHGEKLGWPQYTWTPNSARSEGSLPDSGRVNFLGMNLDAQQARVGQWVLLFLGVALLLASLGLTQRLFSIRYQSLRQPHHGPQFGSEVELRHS
Assay: ACE inhibitory activity (Test Example 1, Cheung and Cushman's method, hippuryl histidyl leucine substrate)
Format: biochemical, rabbit
Details: for The contribution rate in KATSUOBUSHI peptide: contribution of each dipeptide in KATSUOBUSHI peptide; for ACE inhibitory activity value, comparison in words: comparison among dipeptides of Table 30
Method: ACE inhibitory activity was measured as below.
5 g of rabbit lung acetone powder was dissolved in 50 mL of 0.1M sodium borate buffer (pH8.3), centrifuged under the condition of 40000G and for 40 minutes and resulting supernatant was purified with hydroxyapatite to obtain 1 unit/mg protein of angiotensin converting enzyme liquid. Purified ACE derived from rabbit lung (Sigma Co., Ltd., 0.25 unit), alternatively, was used.
0.030 mL of the various concentrations of the dipeptide composition solutions were taken into test tubes, respectively, and then, 0.1 mL of the angiotensin converting enzyme liquid as above was added into the test tubes to react with the composition at 37° C. for 5 minutes. Subsequently, 0.25 mL of hippuryl histidyl leucine (PEPTIDE Lab., Bz-Gly-His-Leu.H2O, the final concentration of 5 mM, including 300 mM of NaCl) as a substrate was added to the test tubes to react with the enzyme at 37° C. for 30 minutes. 0.25 mL of 1N hydrochloric acid, then, was added to the test tube to terminate the reaction, 1.5 mL of ethyl acetate was added to the test tube and stirred with the vortex mixer for 20 seconds, followed by centrifuging (3000 rotations, for 5 minutes) and 1 mL of ethyl acetate layer was isolated.
The inhibitory rate was calculated according to the following formula.
The inhibitory=[1−(A−a)/(B−b)]×100

[1] = isolated peptides, Table 11, read-out: ACE inhibitory activity (IC50: μM)
[2] = Table 30, dipeptides of the invention and other dipeptides, read-out: ACE inhibitory value IC50
[3] = isolated peptides, Table 10, read-out: ACE inhibitory activity (IC50: μM)
[4] = isolated peptides, Table 9, read-out: ACE inhibitory activity (IC50: μM)

Structure (SMILES): C[C@H](N)C(=O)N[C@@H](Cc1c[nH]c2ccccc12)C(=O)O [Alanine-tryptophan, alanine-tryptophan] (H-Ala-Trp-OH; N-terminus and C-terminus assumed)
- contribution rate in KATSUOBUSHI peptide, in words: high
- The contribution rate in KATSUOBUSHI peptide: 0.672%
- IC50 [1]: 10 µM

Structure (SMILES): NC(=O)C[C@H](N)C(=O)N[C@@H](Cc1c[nH]c2ccccc12)C(=O)O [Asparagine-tryptophan, asparagine-tryptophan] (H-Asn-Trp-OH; N-terminus and C-terminus assumed)
- The contribution rate in KATSUOBUSHI peptide: 0.099%

Structure (SMILES): NC(=O)CC[C@H](N)C(=O)N[C@@H](Cc1c[nH]c2ccccc12)C(=O)O [Glutamine-tryptophan, glutamine-tryptophan] (H-Gln-Trp-OH; N-terminus and C-terminus assumed)
- The contribution rate in KATSUOBUSHI peptide: 0.048%
- IC50 [1]: 32.6 µM

Structure (SMILES): NCC(=O)N[C@@H](Cc1c[nH]c2ccccc12)C(=O)O [Glycine-tryptophan, glycine-tryptophan] (H-Gly-Trp-OH)
- The contribution rate in KATSUOBUSHI peptide: 0.366%
- IC50 [1]: 30 µM

Structure (SMILES): CC[C@H](C)[C@H](N)C(=O)N[C@@H](Cc1ccccc1)C(=O)O [Isoleucine-phenylalanine, reference compound] (H-Ile-Phe-OH; N-terminus and C-terminus assumed)
- IC50 [2]: 930 µM

Structure (SMILES): CC[C@H](C)[C@H](N)C(=O)N[C@@H](Cc1c[nH]c2ccccc12)C(=O)O [Isoleucine-tryptophan, isoleucine-tryptophan]
- contribution rate in KATSUOBUSHI peptide, in words: high
- ACE inhibitory activity value, comparison in words: much higher value than the other dipeptides
- The contribution rate in KATSUOBUSHI peptide: 2.040%
- IC50 [3]: 2 µM

Structure (SMILES): CC(C)C[C@H](N)C(=O)N[C@@H](Cc1c[nH]c2ccccc12)C(=O)O [Leucine-tryptophan, leucine-tryptophan]
- IC50 [4]: 23 µM

Structure (SMILES): CSCC[C@H](N)C(=O)N[C@@H](Cc1c[nH]c2ccccc12)C(=O)O [Methionine-tryptophan, methionine-tryptophan] (H-Met-Trp-OH; N-terminus and C-terminus assumed)
- ACE inhibitory activity value, comparison in words: much higher value than the other dipeptides
- The contribution rate in KATSUOBUSHI peptide: 0.343%
- IC50 [3]: 3.8 µM

Structure (SMILES): N[C@@H](CO)C(=O)N[C@@H](Cc1c[nH]c2ccccc12)C(=O)O [Serine-tryptophan, serine-tryptophan] (H-Ser-Trp-OH; N-terminus and C-terminus assumed)
- The contribution rate in KATSUOBUSHI peptide: 0.099%
- IC50 [1]: 22.1 µM

Structure (SMILES): NC(=O)C[C@H](NC(=O)[C@@H](N)Cc1c[nH]c2ccccc12)C(=O)O [Tryptophan-asparagine, tryptophan-asparagine] (H-Trp-Asn-OH; N-terminus and C-terminus assumed)
- IC50 [4]: 580 µM

Structure (SMILES): CC[C@H](C)[C@H](NC(=O)[C@@H](N)Cc1c[nH]c2ccccc12)C(=O)O [Tryptophan-isoleucine, tryptophan-isoleucine] (H-Trp-Ile-OH; N-terminus and C-terminus assumed)
- IC50 [4]: 33.1 µM

Structure (SMILES): CC(C)C[C@H](NC(=O)[C@@H](N)Cc1c[nH]c2ccccc12)C(=O)O [Tryptophan-leucine, tryptophan-leucine] (H-Trp-Leu-OH; N-terminus and C-terminus assumed)
- IC50 [4]: 25.1 µM

Structure (SMILES): CSCC[C@H](NC(=O)[C@@H](N)Cc1c[nH]c2ccccc12)C(=O)O [Tryptophan-methionine, tryptophan-methionine] (H-Trp-Met-OH)
- The contribution rate in KATSUOBUSHI peptide: 0.054%
- IC50 [3]: 36.5 µM

Structure (SMILES): N[C@@H](Cc1c[nH]c2ccccc12)C(=O)N[C@@H](Cc1ccc(O)cc1)C(=O)O [Tryptophan-tyrosine, tryptophan-tyrosine] (H-Trp-Tyr-OH; N-terminus and C-terminus assumed)
- The contribution rate in KATSUOBUSHI peptide: 0.021%
- IC50 [3]: 57 µM

Structure (SMILES): CC(C)[C@H](N)C(=O)N1CCC[C@H]1C(=O)O [Valine-proline, reference compound] (H-Val-Pro-OH)
- IC50 [2]: 420 µM

Structure (SMILES): CC(C)[C@H](N)C(=O)N[C@@H](Cc1c[nH]c2ccccc12)C(=O)O [Valine-tryptophan, valine-tryptophan] (H-Val-Trp-OH)
- contribution rate in KATSUOBUSHI peptide, in words: high
- ACE inhibitory activity value, comparison in words: much higher value than the other dipeptides
- The contribution rate in KATSUOBUSHI peptide: 4.031%

Structure (SMILES): CC(C)[C@H](N)C(=O)N[C@@H](Cc1ccc(O)cc1)C(=O)O [Valine-tyrosine, valine-tyrosine] (H-Val-Tyr-OH; N-terminus and C-terminus assumed)
- IC50 [4]: 11 µM
